Measured values: article PMC4512239 (Clinical cancer research : an official journal of the …, 2015)

Experiment: phase I safety and tolerability
Type: in vivo, human

CNC(=O)c1cccc(-c2ccc3c(N4CCOC[C@@H]4C)nc(N4CCOC[C@@H]4C)nc3n2)c1 [AZD2014]
grade 3 or above hypercholesterolemia or triglyceridemia (50 mg BD cohort): no grade 3 or above hypercholesterolemia or triglyceridemia was seen
dose limiting toxicities (50 mg BD starting dose, 6 patients): no DLTs
nausea, mucositis, diarrhea and vomiting: share of grade 3 or 4 (50 mg BD, Part A and Part B): less than 5%
rash: share of grade 3 or higher (50 mg BD, Part A and Part B): less than 5%
evaluable patients with dose limiting toxicities (70 mg BD): 2/4
patients with dose limiting toxicities (100 mg BD): 4/4
Anemia, Any grade (All 50mg BD solution (N=41)): 7 (17.1) Number (%) of patients
Anemia, CTCAE grade 1-2 (All 50mg BD solution (N=41)): 7 (17.1) Number (%) of patients
Anemia, CTCAE grade >=3 (All 50mg BD solution (N=41)): 0 Number (%) of patients
Back pain, Any grade (All 50mg BD solution (N=41)): 7 (17.1) Number (%) of patients
Back pain, CTCAE grade 1-2 (All 50mg BD solution (N=41)): 6 (14.6) Number (%) of patients
Back pain, CTCAE grade >=3 (All 50mg BD solution (N=41)): 1 (2.4) Number (%) of patients
Constipation, Any grade (All 50mg BD solution (N=41)): 13 (31.7) Number (%) of patients
Constipation, CTCAE grade 1-2 (All 50mg BD solution (N=41)): 13 (31.7) Number (%) of patients
Constipation, CTCAE grade >=3 (All 50mg BD solution (N=41)): 0 Number (%) of patients
Cough, Any grade (All 50mg BD solution (N=41)): 8 (19.5) Number (%) of patients
Cough, CTCAE grade 1-2 (All 50mg BD solution (N=41)): 8 (19.5) Number (%) of patients
Cough, CTCAE grade >=3 (All 50mg BD solution (N=41)): 0 Number (%) of patients
Decreased appetite, Any grade (All 50mg BD solution (N=41)): 17 (41.5) Number (%) of patients
Decreased appetite, CTCAE grade 1-2 (All 50mg BD solution (N=41)): 17 (41.5) Number (%) of patients
Decreased appetite, CTCAE grade >=3 (All 50mg BD solution (N=41)): 0 Number (%) of patients
Diarrhea, Any grade (All 50mg BD solution (N=41)): 17 (41.5) Number (%) of patients
Diarrhea, CTCAE grade 1-2 (All 50mg BD solution (N=41)): 17 (41.5) Number (%) of patients
Diarrhea, CTCAE grade >=3 (All 50mg BD solution (N=41)): 0 Number (%) of patients
Dry mouth, Any grade (All 50mg BD solution (N=41)): 8 (19.5) Number (%) of patients
Dry mouth, CTCAE grade 1-2 (All 50mg BD solution (N=41)): 8 (19.5) Number (%) of patients
Dry mouth, CTCAE grade >=3 (All 50mg BD solution (N=41)): 0 Number (%) of patients
Dyspnea, Any grade (All 50mg BD solution (N=41)): 7 (17.1) Number (%) of patients
Dyspnea, CTCAE grade 1-2 (All 50mg BD solution (N=41)): 5 (12.2) Number (%) of patients
Dyspnea, CTCAE grade >=3 (All 50mg BD solution (N=41)): 2 (4.9) Number (%) of patients
Fatigue, Any grade (All 50mg BD solution (N=41)): 32 (78.0) Number (%) of patients
Fatigue, CTCAE grade 1-2 (All 50mg BD solution (N=41)): 30 (73.2) Number (%) of patients
Fatigue, CTCAE grade >=3 (All 50mg BD solution (N=41)): 2 (4.9) Number (%) of patients
Hypokalemia, Any grade (All 50mg BD solution (N=41)): 6 (14.6) Number (%) of patients
Hypokalemia, CTCAE grade 1-2 (All 50mg BD solution (N=41)): 5 (12.2) Number (%) of patients
Hypokalemia, CTCAE grade >=3 (All 50mg BD solution (N=41)): 1 (2.4) Number (%) of patients
Lower respiratory tract infection, Any grade (All 50mg BD solution (N=41)): 7 (17.1) Number (%) of patients
Lower respiratory tract infection, CTCAE grade 1-2 (All 50mg BD solution (N=41)): 6 (14.6) Number (%) of patients
Lower respiratory tract infection, CTCAE grade >=3 (All 50mg BD solution (N=41)): 1 (2.4) Number (%) of patients
Mucositis, Any grade (All 50mg BD solution (N=41)): 20 (48.8) Number (%) of patients
Mucositis, CTCAE grade 1-2 (All 50mg BD solution (N=41)): 19 (46.3) Number (%) of patients
Mucositis, CTCAE grade >=3 (All 50mg BD solution (N=41)): 1 (2.4) Number (%) of patients
Nausea, Any grade (All 50mg BD solution (N=41)): 21 (51.2) Number (%) of patients
Nausea, CTCAE grade 1-2 (All 50mg BD solution (N=41)): 19 (46.3) Number (%) of patients
Nausea, CTCAE grade >=3 (All 50mg BD solution (N=41)): 2 (4.9) Number (%) of patients
Pruritus, Any grade (All 50mg BD solution (N=41)): 13 (31.7) Number (%) of patients
Pruritus, CTCAE grade 1-2 (All 50mg BD solution (N=41)): 13 (31.7) Number (%) of patients
Pruritus, CTCAE grade >=3 (All 50mg BD solution (N=41)): 0 Number (%) of patients
Rash, Any grade (All 50mg BD solution (N=41)): 17 (41.5) Number (%) of patients
Rash, CTCAE grade 1-2 (All 50mg BD solution (N=41)): 15 (36.6) Number (%) of patients
Rash, CTCAE grade >=3 (All 50mg BD solution (N=41)): 2 (4.9) Number (%) of patients
Vomiting, Any grade (All 50mg BD solution (N=41)): 12 (29.3) Number (%) of patients
Vomiting, CTCAE grade 1-2 (All 50mg BD solution (N=41)): 11 (26.8) Number (%) of patients
Vomiting, CTCAE grade >=3 (All 50mg BD solution (N=41)): 1 (2.4) Number (%) of patients
Anemia, Any grade (Part A 25mg BD solution (N=6)): 0 Number (%) of patients
Anemia, CTCAE grade 1-2 (Part A 25mg BD solution (N=6)): 0 Number (%) of patients
Anemia, CTCAE grade >=3 (Part A 25mg BD solution (N=6)): 0 Number (%) of patients
Back pain, Any grade (Part A 25mg BD solution (N=6)): 0 Number (%) of patients
Back pain, CTCAE grade 1-2 (Part A 25mg BD solution (N=6)): 0 Number (%) of patients
Back pain, CTCAE grade >=3 (Part A 25mg BD solution (N=6)): 0 Number (%) of patients
Constipation, Any grade (Part A 25mg BD solution (N=6)): 2 (33.3) Number (%) of patients
Constipation, CTCAE grade 1-2 (Part A 25mg BD solution (N=6)): 2 (33.3) Number (%) of patients
Constipation, CTCAE grade >=3 (Part A 25mg BD solution (N=6)): 0 Number (%) of patients
Cough, Any grade (Part A 25mg BD solution (N=6)): 3 (50.0) Number (%) of patients
Cough, CTCAE grade 1-2 (Part A 25mg BD solution (N=6)): 3 (50.0) Number (%) of patients
Cough, CTCAE grade >=3 (Part A 25mg BD solution (N=6)): 0 Number (%) of patients
Decreased appetite, Any grade (Part A 25mg BD solution (N=6)): 3 (50.0) Number (%) of patients
Decreased appetite, CTCAE grade 1-2 (Part A 25mg BD solution (N=6)): 3 (50.0) Number (%) of patients
Decreased appetite, CTCAE grade >=3 (Part A 25mg BD solution (N=6)): 0 Number (%) of patients
Diarrhea, Any grade (Part A 25mg BD solution (N=6)): 2 (33.3) Number (%) of patients
Diarrhea, CTCAE grade 1-2 (Part A 25mg BD solution (N=6)): 2 (33.3) Number (%) of patients
Diarrhea, CTCAE grade >=3 (Part A 25mg BD solution (N=6)): 0 Number (%) of patients
Dry mouth, CTCAE grade >=3 (Part A 25mg BD solution (N=6)): 0 Number (%) of patients
Dyspnea, Any grade (Part A 25mg BD solution (N=6)): 1 (16.7) Number (%) of patients
Dyspnea, CTCAE grade 1-2 (Part A 25mg BD solution (N=6)): 1 (16.7) Number (%) of patients
Dyspnea, CTCAE grade >=3 (Part A 25mg BD solution (N=6)): 0 Number (%) of patients
Fatigue, Any grade (Part A 25mg BD solution (N=6)): 3 (50.0) Number (%) of patients
Fatigue, CTCAE grade 1-2 (Part A 25mg BD solution (N=6)): 2 (33.3) Number (%) of patients
Fatigue, CTCAE grade >=3 (Part A 25mg BD solution (N=6)): 1 (16.7) Number (%) of patients
Hypokalemia, Any grade (Part A 25mg BD solution (N=6)): 2 (33.3) Number (%) of patients
Hypokalemia, CTCAE grade 1-2 (Part A 25mg BD solution (N=6)): 2 (33.3) Number (%) of patients
Hypokalemia, CTCAE grade >=3 (Part A 25mg BD solution (N=6)): 0 Number (%) of patients
Lower respiratory tract infection, Any grade (Part A 25mg BD solution (N=6)): 1 (16.7) Number (%) of patients
Lower respiratory tract infection, CTCAE grade 1-2 (Part A 25mg BD solution (N=6)): 0 Number (%) of patients
Lower respiratory tract infection, CTCAE grade >=3 (Part A 25mg BD solution (N=6)): 1 (16.7) Number (%) of patients
Mucositis, Any grade (Part A 25mg BD solution (N=6)): 2 (33.3) Number (%) of patients
Mucositis, CTCAE grade 1-2 (Part A 25mg BD solution (N=6)): 2 (33.3) Number (%) of patients
Mucositis, CTCAE grade >=3 (Part A 25mg BD solution (N=6)): 0 Number (%) of patients
Nausea, Any grade (Part A 25mg BD solution (N=6)): 2 (33.3) Number (%) of patients
Nausea, CTCAE grade 1-2 (Part A 25mg BD solution (N=6)): 2 (33.3) Number (%) of patients
Nausea, CTCAE grade >=3 (Part A 25mg BD solution (N=6)): 0 Number (%) of patients
Pruritus, Any grade (Part A 25mg BD solution (N=6)): 0 Number (%) of patients
Pruritus, CTCAE grade 1-2 (Part A 25mg BD solution (N=6)): 0 Number (%) of patients
Pruritus, CTCAE grade >=3 (Part A 25mg BD solution (N=6)): 0 Number (%) of patients
Rash, Any grade (Part A 25mg BD solution (N=6)): 1(16.7) Number (%) of patients
Rash, CTCAE grade 1-2 (Part A 25mg BD solution (N=6)): 1(16.7) Number (%) of patients
Rash, CTCAE grade >=3 (Part A 25mg BD solution (N=6)): 0 Number (%) of patients
Vomiting, Any grade (Part A 25mg BD solution (N=6)): 0 Number (%) of patients
Vomiting, CTCAE grade 1-2 (Part A 25mg BD solution (N=6)): 0 Number (%) of patients
Vomiting, CTCAE grade >=3 (Part A 25mg BD solution (N=6)): 0 Number (%) of patients
Anemia, Any grade (Part A 70mg BD solution (N=5)): 1 (20.0) Number (%) of patients
Anemia, CTCAE grade 1-2 (Part A 70mg BD solution (N=5)): 0 Number (%) of patients
Anemia, CTCAE grade >=3 (Part A 70mg BD solution (N=5)): 1 (20.0) Number (%) of patients
Back pain, Any grade (Part A 70mg BD solution (N=5)): 0 Number (%) of patients
Back pain, CTCAE grade 1-2 (Part A 70mg BD solution (N=5)): 0 Number (%) of patients
Back pain, CTCAE grade >=3 (Part A 70mg BD solution (N=5)): 0 Number (%) of patients
Constipation, Any grade (Part A 70mg BD solution (N=5)): 0 Number (%) of patients
Constipation, CTCAE grade 1-2 (Part A 70mg BD solution (N=5)): 0 Number (%) of patients
Constipation, CTCAE grade >=3 (Part A 70mg BD solution (N=5)): 0 Number (%) of patients
Cough, Any grade (Part A 70mg BD solution (N=5)): 1 (20.0) Number (%) of patients
Cough, CTCAE grade 1-2 (Part A 70mg BD solution (N=5)): 1 (20.0) Number (%) of patients
Cough, CTCAE grade >=3 (Part A 70mg BD solution (N=5)): 0 Number (%) of patients
Decreased appetite, Any grade (Part A 70mg BD solution (N=5)): 2 (40.0) Number (%) of patients
Decreased appetite, CTCAE grade 1-2 (Part A 70mg BD solution (N=5)): 2 (40.0) Number (%) of patients
Decreased appetite, CTCAE grade >=3 (Part A 70mg BD solution (N=5)): 0 Number (%) of patients
Diarrhea, Any grade (Part A 70mg BD solution (N=5)): 3 (60.0) Number (%) of patients
Diarrhea, CTCAE grade 1-2 (Part A 70mg BD solution (N=5)): 3 (60.0) Number (%) of patients
Diarrhea, CTCAE grade >=3 (Part A 70mg BD solution (N=5)): 0 Number (%) of patients
Dry mouth, Any grade (Part A 70mg BD solution (N=5)): 0 Number (%) of patients
Dry mouth, CTCAE grade 1-2 (Part A 70mg BD solution (N=5)): 0 Number (%) of patients
Dry mouth, CTCAE grade >=3 (Part A 70mg BD solution (N=5)): 0 Number (%) of patients
Dyspnea, Any grade (Part A 70mg BD solution (N=5)): 1 (20.0) Number (%) of patients
Dyspnea, CTCAE grade 1-2 (Part A 70mg BD solution (N=5)): 1 (20.0) Number (%) of patients
Dyspnea, CTCAE grade >=3 (Part A 70mg BD solution (N=5)): 0 Number (%) of patients
